Data published in patent publication US9301951B2 (Ardelyx, Inc., priority 2010, dated 2016).
Marks after values point to notes of the source that are not given here.

Assays:
[1] = test system: 5/6 nephrectomy (5/6Nx) rat model of CKD; experiment: In vivo evaluation in CKD rats (5/6 nephrectomy, 0.9% P diet, calcitriol); details: drug in chow
Procedure: To assess the ability of selected example compounds to impact the progression of chronic kidney disease (CKD), 5/6 nephrectomy (5/6Nx) rat model of CKD was used. […] 5/6 Nx rats were obtained from Charles River Labs (CRL, Hollister, Calif.). Upon arrival, the surgeries and extent of kidney damage in the animals were assessed by measuring serum creatinine, P, Ca, and BUN. Based on this analysis, rats with inconsistent kidney function were removed from the study and the remainder of the cohort was divided in to evenly stratified test groups. The remaining animals were then placed on the same synthetic diet used in the drug-in-chow studies (Example 350), except the P levels were adjusted to 0.9% P. Drugs are blended into this chow to achieve the required dosing rate. At this time, rats were also started on an activated Vitamin D regimen in which they were injected intraperitoneally with calcitriol at 80 ng/kg three times a week. Once a week, serum was collected via retro orbital bleeding for analysis of serum P and creatinine utilizing an ACE ALERA blood chemistry analyzer. […] Unless otherwise indicated, the data shown is from the serum collected at 2 weeks after initiation of the treatment regimen. In addition, for study #3, during the third week of the study, the animals were placed in metabolic cages for two days, and urine collected for the final 24 hours.

human NaP2b (SLC34A2) = target: T1, human NaP2b (SLC34A2) (Homo sapiens, UniProt O95436); experiment: Inhibition of NaP2b-mediated Pi (33P) uptake in transfected HEK293 cells, human NaP2b; format: cell-based; details: HEK293 cells transfected with human NaP2b, 100 uM phosphate, 0.1 nM to 30 uM, read-out: pIC50 range for human NaP2b (converted)
T1 construct: host or cells: HEK293
T1 sequence (O95436 1-690): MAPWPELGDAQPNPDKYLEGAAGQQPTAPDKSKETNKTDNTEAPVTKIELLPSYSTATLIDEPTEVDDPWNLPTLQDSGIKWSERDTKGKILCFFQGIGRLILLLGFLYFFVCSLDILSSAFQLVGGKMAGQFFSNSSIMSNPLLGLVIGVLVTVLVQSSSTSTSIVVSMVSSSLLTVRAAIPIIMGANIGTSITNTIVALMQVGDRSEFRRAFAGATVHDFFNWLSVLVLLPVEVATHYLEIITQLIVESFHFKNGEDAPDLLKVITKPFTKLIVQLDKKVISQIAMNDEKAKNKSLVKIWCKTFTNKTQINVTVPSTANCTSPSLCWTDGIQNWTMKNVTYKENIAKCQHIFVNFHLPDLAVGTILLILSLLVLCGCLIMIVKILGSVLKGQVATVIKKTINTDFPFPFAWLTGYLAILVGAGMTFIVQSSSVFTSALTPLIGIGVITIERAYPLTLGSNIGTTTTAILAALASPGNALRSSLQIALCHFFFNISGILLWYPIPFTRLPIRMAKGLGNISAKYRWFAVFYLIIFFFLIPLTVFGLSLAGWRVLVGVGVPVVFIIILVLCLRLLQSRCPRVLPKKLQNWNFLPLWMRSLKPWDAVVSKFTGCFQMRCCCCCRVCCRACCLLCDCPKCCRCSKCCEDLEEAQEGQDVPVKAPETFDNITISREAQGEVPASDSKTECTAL
Procedure: (§1) HEK293 cells were obtained from the American Type Culture collection and propagated per their instructions. Expression clones for rat and human NaP2b (SLC34A2) were obtained from Open Biosystems (Catalog numbers MRN1768-9510282, and MHS1010-99823026, respectively). The sequence of the human protein was mutated to insert a threonine after residue 37, and to introduce a N39D mutation.
The rate of phosphate (Pi) uptake into HEK293 cells was measured using a modification of the method described by Mohrmann et al. (Mohrmann, I., Mohrmann, M., Biber, J., and Murer, H. (1986) Am. J. Phys. 250(3 Pt 1):G323-30.) Transfected HEK293 cells were treated with a pharmacological agent to minimize endogenous PiT-mediated phosphate transport activity, such that the only remaining sodium-dependent phosphate transport activity is that which was bestowed by introduction of the NaP2b genes.
(§2) Cells were seeded into 96-well plates at 25,000 cells/well and cultured overnight. Lipofectamine 2000 (Invitrogen) was used to introduce the NaP2b cDNA, and the cells were allowed to approach confluence during a second overnight incubation. […] Cells were then overlayed with either choline uptake buffer or sodium uptake buffer (14 mM Tris, 137 mM sodium chloride, 5.4 mM KCl, 2.8 mM CaCl2, 1.2 mM MgSO4, 100 uM KH2PO4, PiT-silencing agent, 1 mg/mL Bovine Serum Albumin, pH 7.4) containing 6-9 uCi/mL ^33P orthophosphoric acid (Perkin Elmer) and test compound. Each compound was tested at twelve concentrations ranging from 0.1 nM to 30 uM. Assays were run in duplicate.
After incubation for 3-30 minutes at room temperature, assay mixtures were removed, and the cells were washed twice with ice cold stop solution (137 mM sodium chloride, 14 mM Tris, pH 7.4). Cells were lysed by addition of 20 μL 0.1% Tween 80 followed by 100 μL scintillation fluid, and counted using a TopCount (Perkin Elmer).
(§3) pIC50 (the negative log of the […]) values of the test compounds were calculated using GraphPad Prism.

rat NaP2b (SLC34A2) = target: T2, rat NaP2b (SLC34A2) (Rattus norvegicus, UniProt Q9JJ09); experiment: Inhibition of NaP2b-mediated Pi (33P) uptake in transfected HEK293 cells, rat NaP2b; format: cell-based; details: HEK293 cells transfected with rat NaP2b, 100 uM phosphate, 0.1 nM to 30 uM, read-out: pIC50 range for rat Nap2b (converted)
T2 construct: host or cells: HEK293
T2 sequence (Q9JJ09 1-695): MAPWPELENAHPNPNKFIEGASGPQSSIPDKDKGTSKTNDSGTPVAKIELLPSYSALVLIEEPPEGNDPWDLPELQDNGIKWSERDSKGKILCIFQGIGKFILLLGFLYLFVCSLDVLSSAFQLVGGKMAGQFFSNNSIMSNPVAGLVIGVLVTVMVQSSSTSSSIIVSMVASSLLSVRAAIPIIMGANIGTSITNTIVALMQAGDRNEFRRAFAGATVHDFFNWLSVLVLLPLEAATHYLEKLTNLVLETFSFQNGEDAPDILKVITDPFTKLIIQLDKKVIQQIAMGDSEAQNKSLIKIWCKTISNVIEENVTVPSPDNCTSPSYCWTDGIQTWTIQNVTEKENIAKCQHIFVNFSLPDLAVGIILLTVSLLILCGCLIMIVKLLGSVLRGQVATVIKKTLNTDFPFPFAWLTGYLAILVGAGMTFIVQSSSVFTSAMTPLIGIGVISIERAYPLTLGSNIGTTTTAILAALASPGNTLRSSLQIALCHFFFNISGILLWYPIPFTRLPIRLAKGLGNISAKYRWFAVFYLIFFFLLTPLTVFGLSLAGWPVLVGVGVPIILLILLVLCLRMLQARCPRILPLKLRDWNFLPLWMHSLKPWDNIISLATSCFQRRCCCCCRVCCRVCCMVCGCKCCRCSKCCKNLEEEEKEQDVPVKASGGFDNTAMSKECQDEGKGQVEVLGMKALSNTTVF
Procedure: as §1, §2
Cells were lysed by addition of 20 μL 0.1% Tween 80 followed by 100 μL scintillation fluid, and counted using a TopCount (Perkin Elmer).
as §3

Structure (SMILES)	IC50 (human NaP2b (SLC34A2))	IC50 (rat NaP2b (SLC34A2))	further results
CCN(CC)c1ccc(NC(=O)c2cccc(CCCOCCOCCOCCOCCOCCOCCOCCOCCOC)c2)c(-c2cc(C(=O)N[C@H]3CCCc4ccccc43)ccn2)c1 [Example 261, (S)-2-(2-(3-(2,5,8,11,14,17,20,23,26-nonaoxanonacosan-29-yl)benzamido)-5-(diethylamino)phenyl)-N-(1,2,3,4-tetrahydronaphthalen-1-yl)isonicotinamide]			Ser CRE ([1]; study 1, 2 weeks): 1.0 mg/dL; Ser P ([1]; study 1, 2 weeks): 9.7 mg/dL; FGF23, pg/mL ([1]; study 1, 2 weeks, serum): >15,000 pg/mL
CCN(CC)c1ccc(NC(=O)c2cccc(C(=O)N(C)CCN3CCN(C(=O)N(C)CCOCCOCCOCCC(=O)N(C)C[C@H](O)[C@@H](O)[C@H](O)[C@H](O)CO)CC3)c2)c(-c2cc(C(=O)N[C@H]3CCCc4ccccc43)ccn2)c1 [Example 232, 3-N-[4-(diethylamino)-2-(4-{[(1S)-1,2,3,4-tetrahydronaphthalen-1-yl]carbamoyl}pyridin-2-yl)phenyl]-1-N-methyl-1-N-(2-{4-[methyl(2-{2-[2-(2-{methyl[(2S,3R,4R,5R)-2,3,4,5,6-pentahydroxyhexyl]carbamoyl}ethoxy)ethoxy]ethoxy}ethyl)carbamoyl]piperazin-1-yl}ethyl)benzene-1,3-dicarboxamide]	10 to 31.6 µM	10 to 31.6 µM	
CCN(CC)c1ccc(NC(=O)c2cccc(CSCCOCCOCCOCCOCCOCCOCCOCCOCCC(=O)O)c2)c(-c2cc(C(=O)NCc3cccc(C(F)(F)F)c3)ccn2)c1 [Example 166, 1-(3-(4-(diethylamino)-2-(4-(3-(trifluoromethyl)benzylcarbamoyl)pyridin-2-yl)phenylcarbamoyl)phenyl)-5,8,11,14,17,20,23,26-octaoxa-2-thianonacosan-29-oic acid]			Ser CRE ([1]; study 2, 2 weeks): 1.2 mg/dL; Ser P ([1]; study 2, 2 weeks): 11 mg/dL; FGF23 ([1]; study 2, 2 weeks, serum): 100000 pg/mL; Ser CRE, mg/dL ([1]; study 3, 3 weeks): 1.0^§ mg/dL; Ser P, mg/dL ([1]; study 3, 3 weeks): 10^§ mg/dL; Avg % weight gain ([1]; study 3, 4 weeks): 35^§§ %; FGF23, pg/mL ([1]; study 3, 4 weeks, serum): 1.2 × 10^5§§ pg/mL
CCN(CC)c1ccc(NC(=O)c2cccc(CCCOCCOCCOCCOCCNS(=O)(=O)c3ccc(C(=O)N4CCN(CCOCCOCCOCCOCCOCCOCCOC)C(=O)C4)cc3)c2)c(-c2cc(C(=O)NCc3cccc(C(F)(F)F)c3)ccn2)c1 [Example 288, 2-(2-(3-(1-(4-(4-(2,5,8,11,14,17,20-heptaoxadocosan-22-yl)-3-oxopiperazine-1-carbonyl)phenylsulfonamido)-3,6,9,12-tetraoxapentadecan-15-yl)benzamido)-5-(diethylamino)phenyl)-N-(3-(trifluoromethyl)benzyl)isonicotinamide]	1 to 7.94 µM		
CCN(CC)c1ccc(NC(=O)c2cccc(Cn3ccc4c(C(=O)NCCOCCOCCOCCC(=O)O)cccc43)c2)c(-c2cc(C(=O)N[C@H]3CCCc4ccccc43)ccn2)c1 [Example 182, (S)-1-(1-(3-(4-(diethylamino)-2-(4-(1,2,3,4-tetrahydronaphthalen-1-ylcarbamoyl)pyridin-2-yl)phenylcarbamoyl)benzyl)-1H-indol-4-yl)-1-oxo-5,8,11-trioxa-2-azatetradecan-14-oic acid]	< 1 µM	< 1 µM	
CCN(CC)c1ccc(NC(=O)c2cccc(CCCOCCOCCOCCOCCNC(=O)c3cccc(CCCOCCOCCOCCOCCOCCOCCOCCOCCOC)c3)c2)c(-c2cc(C(=O)NCc3cccc(C(F)(F)F)c3)ccn2)c1 [Example 271, 2-(2-(3-(1-(3-(2,5,8,11,14,17,20,23,26-nonaoxanonacosan-29-yl)phenyl)-1-oxo-5,8,11,14-tetraoxa-2-azaheptadecan-17-yl)benzamido)-5-(diethylamino)phenyl)-N-(3-(trifluoromethyl)benzyl)isonicotinamide]	< 1 µM		

Now from value to molecule, other results behind:

IC50 (human NaP2b (SLC34A2))	IC50 (rat NaP2b (SLC34A2))	Structure (SMILES)	further results
1 to 7.94 µM	1 to 7.94 µM	CCN(CC)c1ccc(NC(=O)c2cccc(COCCOCCOCCOCCOC(=O)N(CCO)CCO)c2)c(-c2cc(C(=O)NCc3cccc(C(F)(F)F)c3)ccn2)c1 [Example 176, 1-(3-(4-(diethylamino)-2-(4-(3-(trifluoromethyl)benzylcarbamoyl)pyridin-2-yl)phenylcarbamoyl)phenyl)-2,5,8,11-tetraoxamidecan-13-yl bis(2-hydroxyethyl)carbamate]	
1 to 7.94 µM	1 to 7.94 µM	CCN(CC)c1ccc(NC(=O)c2cccc(CCCOCCOCCOCCOCCC(=O)N3CCN(C(=O)c4cccc(CCCOCCOCCOCCOCCC(=O)O)c4)CC3)c2)c(-c2cc(C(=O)NCc3cccc(C(F)(F)F)c3)ccn2)c1 [Example 293, 16-(3-(4-(16-(3-(4-(diethylamino)-2-(4-(3-(trifluoromethyl)benzylcarbamoyl)pyridin-2-yl)phenylcarbamoyl)phenyl)-4,7,10,13-tetraoxahexadecane)piperazine-1-carbonyl)phenyl)-4,7,10,13-tetraoxahexadecan-1-oic acid]	
10 to 31.6 µM	10 to 31.6 µM	CCN(CC)c1ccc(NC(=O)c2cccc(CS(=O)(=O)CCOCCOCCOCCOCCC(=O)O)c2)c(-c2cc(C(=O)NCc3cccc(C(F)(F)F)c3)ccn2)c1 [Example 167, 1-(((3-((4-(diethylamino)-2-[4-(((3-(trifluoromethyl)phenyl]methyl)carbamoyl)pyridin-2-yl)phenyl)carbamoyl)phenyl)methane)sulfonyl)-3,6,9,12-tetraoxapentadecan-15-oic acid]	
1 to 7.94 µM	1 to 7.94 µM	CCN(CC)c1ccc(NC(=O)c2cccc(COCCOCCOCCOCCOC(=O)NC(CO)(CO)CO)c2)c(-c2cc(C(=O)NCc3cccc(C(F)(F)F)c3)ccn2)c1 [Example 177, 1-(3-(4-(diethylamino)-2-(4-(3-(trifluoromethyl)benzylcarbamoyl)pyridin-2-yl)phenylcarbamoyl)phenyl)-2,5,8,11-tetraoxamidecan-13-yl 1,3-dihydroxy-2-(hydroxymethyl)propan-2-ylcarbamate]	
1 to 7.94 µM		CCN(CC)c1ccc(NC(=O)c2cccc(CCCOCCOCCOCCOCCNS(=O)(=O)c3ccc(CCC(=O)NCCOCCOCCOCCOCCOCCOCCOC)cc3)c2)c(-c2cc(C(=O)NCc3cccc(C(F)(F)F)c3)ccn2)c1 [Example 296, 2-(5-(diethylamino)-2-(3-(1-(4-(24-oxo-2,5,8,11,14,17,20-heptaoxa-23-azahexacosan-26-yl)phenylsulfonamido)-3,6,9,12-tetraoxapentadecan-15-yl)benzamido)phenyl)-N-(3-(trifluoromethyl)benzyl)isonicotinamide]	
